Results from BigSolDB 2.1.

c1ccc2c(c1)sc1ccccc12
Conditions	solubility (mole fraction)
in 2-(2-butoxyethoxy)ethanol, 282.75 K	0.063
in 2-(2-butoxyethoxy)ethanol, 285.85 K	0.0695
in 2-(2-butoxyethoxy)ethanol, 291.65 K	0.0873
in 2-(2-butoxyethoxy)ethanol, 298.95 K	0.105
in 2-(2-butoxyethoxy)ethanol, 304.35 K	0.123
in 2-(2-butoxyethoxy)ethanol, 309.85 K	0.144
in 2-(2-butoxyethoxy)ethanol, 316.05 K	0.167
in 2-(2-butoxyethoxy)ethanol, 320.95 K	0.192
in 2-(2-butoxyethoxy)ethanol, 324.35 K	0.217
in 2-(2-butoxyethoxy)ethanol, 328.95 K	0.245
in 2-(2-butoxyethoxy)ethanol, 333.15 K	0.28
in DMF, 289.45 K	0.113
in DMF, 294.25 K	0.131
in DMF, 298.65 K	0.147
in DMF, 302.65 K	0.165
in DMF, 306.55 K	0.184
in DMF, 310.15 K	0.206
in DMF, 314.35 K	0.231
in DMF, 318.35 K	0.257
in DMF, 322.35 K	0.285
in DMF, 325.55 K	0.313
in DMF, 329.25 K	0.344
in DMSO, 292.95 K	0.0567
in DMSO, 296.45 K	0.0668
in DMSO, 301.25 K	0.0791
in DMSO, 306.15 K	0.0925
in DMSO, 310.15 K	0.108
in DMSO, 314.85 K	0.127
in DMSO, 318.05 K	0.15
in DMSO, 322.95 K	0.177
in DMSO, 325.45 K	0.201
in DMSO, 330.15 K	0.234
in DMSO, 333.25 K	0.264
in acetone, 300.15 K	0.0769
in acetone, 301.15 K	0.0792
in acetone, 303.15 K	0.0884
in acetone, 308.15 K	0.107
in acetone, 311.25 K	0.12
in acetone, 314.65 K	0.136
in acetone, 317.95 K	0.156
in acetone, 321.65 K	0.179
in acetone, 326.25 K	0.217
in acetone, 330.95 K	0.261
in acetone, 336.25 K	0.319
in acetone, 341.15 K	0.372
in acetonitrile, 289.35 K	0.0103
in acetonitrile, 290.45 K	0.0107
in acetonitrile, 293.25 K	0.0121
in acetonitrile, 297.35 K	0.0143
in acetonitrile, 302.15 K	0.0175
in acetonitrile, 304.55 K	0.0199
in acetonitrile, 309.25 K	0.0244
in decalin, 294.15 K	0.0408
in decalin, 296.15 K	0.042
in decalin, 298.15 K	0.0445
in decalin, 302.15 K	0.049
in decalin, 304.15 K	0.0516
in decalin, 308.15 K	0.0571
in decalin, 317.15 K	0.0706
in decalin, 325.15 K	0.0891
in decalin, 331.15 K	0.101
in decalin, 337.15 K	0.107
in diethylene glycol, 287.85 K	0.00027
in diethylene glycol, 299.95 K	0.00062
in diethylene glycol, 309.95 K	0.00093
in diethylene glycol, 314.15 K	0.00119
in diethylene glycol, 317.65 K	0.00163
in diethylene glycol, 320.95 K	0.0023
in diethylene glycol, 324.95 K	0.00328
in diethylene glycol, 326.85 K	0.00443
in diethylene glycol, 328.15 K	0.00619
in diethylene glycol, 330.15 K	0.00951
in diethylene glycol, 332.35 K	0.0143
in diethylene glycol, 334.15 K	0.0203
in ethanol, 294.55 K	0.0062
in ethanol, 300.25 K	0.0074
in ethanol, 303.85 K	0.0082
in ethanol, 306.45 K	0.0092
in ethanol, 310.25 K	0.0106
in ethanol, 313.95 K	0.0121
in ethanol, 318.95 K	0.0141
in ethanol, 322.55 K	0.0164
in ethanol, 327.35 K	0.0197
in ethanol, 331.15 K	0.0239
in n-octane, 292.05 K	0.0232
in n-octane, 294.15 K	0.0244
in n-octane, 297.15 K	0.0277
in n-octane, 300.05 K	0.0317
in n-octane, 304.15 K	0.0373
in n-octane, 308.25 K	0.0438
in n-octane, 314.15 K	0.0521
in n-octane, 318.15 K	0.062
in n-octane, 325.15 K	0.0767
in n-octane, 337.15 K	0.0995
in n-propanol, 288.05 K	0.0065
in n-propanol, 295.95 K	0.0083
in n-propanol, 300.15 K	0.0099
in n-propanol, 303.85 K	0.0118
in n-propanol, 307.85 K	0.0143
in n-propanol, 314.65 K	0.0183
in n-propanol, 320.65 K	0.0232
in n-propanol, 324.05 K	0.0292
in n-propanol, 328.95 K	0.0363
in n-propanol, 332.25 K	0.043
in n-propanol, 336.05 K	0.0486
in sulfolane, 297.65 K	0.0541
in sulfolane, 299.45 K	0.0563
in sulfolane, 301.75 K	0.0609
in sulfolane, 303.45 K	0.0712
in sulfolane, 309.15 K	0.0923
in sulfolane, 313.35 K	0.109
in sulfolane, 317.05 K	0.125
in sulfolane, 321.05 K	0.144
in sulfolane, 324.85 K	0.163
in sulfolane, 327.75 K	0.185
in sulfolane, 331.75 K	0.214
in sulfolane, 334.75 K	0.242
in sulfolane, 338.25 K	0.271
in sulfolane, 340.45 K	0.294
